According to PubChem BioAssay AID248 (DTP/NCI, 2004):
Inconclusive results and toxic doses are left out. Cut-off read from the data, not from the text of the source: active = T/C of 150% or more; inactive = T/C below 125%.

Tested on: L1210 leukemia ip in BDF1 mice, survival T/C
Assay: NCI In Vivo Anticancer Drug Screen. Data for tumor model L1210 Leukemia (intraperitoneal) in B6D2F1 (BDF1) mice
Conditions: endpoint: mean survival time, higher = longer survival
In short: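 Value reflects the ratio of survival in compound-treated mice to survival in vehicle-treated controls, with both groups carrying the same transplanted tumor.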

[1] = dose: 50.0 mg/kg/injection, schedule: Q01DX009 (ip), vehicle: saline with Tween-80
[2] = dose: 100.0 mg/kg/injection, schedule: Q01DX009 (ip), vehicle: saline with Tween-80
[3] = dose: 200.0 mg/kg/injection, schedule: Q01DX009 (ip), vehicle: saline with Tween-80
[4] = dose: 100.0 mg/kg/injection, schedule: Q01DX001 (ip), vehicle: Klucel (hydroxypropylcellulose) (HPC)
[5] = dose: 200.0 mg/kg/injection, schedule: Q01DX001 (ip), vehicle: Klucel (hydroxypropylcellulose) (HPC)
[6] = dose: 100.0 mg/kg/injection, schedule: Q04DX003 (ip), vehicle: saline with Tween-80
[7] = dose: 200.0 mg/kg/injection, schedule: Q04DX003 (ip), vehicle: saline with Tween-80
[8] = dose: 50.0 mg/kg/injection, schedule: Q01DX001 (ip), vehicle: carboxymethylcellulose (CMC)
[9] = dose: 100.0 mg/kg/injection, schedule: Q01DX001 (ip), vehicle: carboxymethylcellulose (CMC)
[10] = dose: 200.0 mg/kg/injection, schedule: Q01DX001 (ip), vehicle: carboxymethylcellulose (CMC)
[11] = dose: 400.0 mg/kg/injection, schedule: Q01DX001 (ip), vehicle: carboxymethylcellulose (CMC)

Measured: T/C

Cc1cc(Cl)ccc1OC(=O)COc1cc(Cl)c(Cl)cc1Cl
inactive: dose: 1.56 mg/kg/injection, schedule: Q04DX002 (ip), vehicle: Klucel (hydroxypropylcellulose) (HPC) 108 % of control | dose: 3.13 mg/kg/injection, schedule: Q04DX002 (ip), vehicle: Klucel (hydroxypropylcellulose) (HPC) 108 % of control | dose: 6.25 mg/kg/injection, schedule: Q04DX002 (ip), vehicle: Klucel (hydroxypropylcellulose) (HPC) 105 % of control | dose: 12.5 mg/kg/injection, schedule: Q04DX002 (ip), vehicle: Klucel (hydroxypropylcellulose) (HPC) 95 % of control | dose: 25.0 mg/kg/injection, schedule: Q04DX002 (ip), vehicle: Klucel (hydroxypropylcellulose) (HPC) 100 % of control | dose: 50.0 mg/kg/injection, schedule: Q04DX002 (ip), vehicle: Klucel (hydroxypropylcellulose) (HPC) 100 % of control

CCOC(=O)C(CC)C(O)c1cccc(OC)c1 (centres undefined)
inactive: [1] 94 % of control | [2] 94 % of control | [3] 94 % of control

CCCCC(F)C(Br)C(=O)O (centres undefined)
inactive: dose: 100.0 mg/kg/injection, schedule: Q04DX002 (ip), vehicle: saline with Tween-80 97 % of control | dose: 200.0 mg/kg/injection, schedule: Q04DX002 (ip), vehicle: saline with Tween-80 87 % of control | dose: 400.0 mg/kg/injection, schedule: Q04DX002 (ip), vehicle: saline with Tween-80 93 % of control

CC(=O)Nc1ccc(C(=O)C(O)c2ccc(NC(C)=O)cc2)cc1 (centres undefined)
inactive: dose: 50.0 mg/kg/injection, schedule: Q01DX001 (ip), vehicle: other 100 % of control | dose: 100.0 mg/kg/injection, schedule: Q01DX001 (ip), vehicle: other 92 % of control | dose: 200.0 mg/kg/injection, schedule: Q01DX001 (ip), vehicle: other 105 % of control | dose: 400.0 mg/kg/injection, schedule: Q01DX001 (ip), vehicle: other 88 % of control

CCOC1(OCC)C([N+](=O)[O-])=CC(=[N+]([O-])O)C=C1[N+](=O)[O-]
inactive: dose: 50.0 mg/kg/injection, schedule: Q01DX001 (ip), vehicle: saline 102 % of control | dose: 100.0 mg/kg/injection, schedule: Q01DX001 (ip), vehicle: saline 98 % of control | dose: 200.0 mg/kg/injection, schedule: Q01DX001 (ip), vehicle: saline 98 % of control | dose: 400.0 mg/kg/injection, schedule: Q01DX001 (ip), vehicle: saline 101 % of control

N=C1SC(c2ccccc2)c2ccccc21 (centres undefined)
inactive: [4] 98 % of control | [5] 93 % of control | dose: 400.0 mg/kg/injection, schedule: Q01DX001 (ip), vehicle: Klucel (hydroxypropylcellulose) (HPC) 95 % of control

Cc1[nH]c(=S)[nH]c(=O)c1CC(O)c1ccccc1 (centres undefined)
inactive: dose: 100.0 mg/kg/injection, schedule: Q04DX003 (ip), vehicle: Klucel (hydroxypropylcellulose) (HPC) 92 % of control | dose: 100.0 mg/kg/injection, schedule: Q04DX003 (ip), vehicle: saline 92 % of control | dose: 200.0 mg/kg/injection, schedule: Q04DX003 (ip), vehicle: saline 94 % of control | dose: 400.0 mg/kg/injection, schedule: Q04DX003 (ip), vehicle: Klucel (hydroxypropylcellulose) (HPC) 87 % of control | dose: 400.0 mg/kg/injection, schedule: Q04DX003 (ip), vehicle: saline 89 % of control

CC(C)OC(=S)SSc1nc2ccccc2s1
inactive: [1] 103 % of control | [2] 92 % of control | [6] 90 % of control | [3] 96 % of control | [7] 96 % of control

O=S(=O)(O)CS(=O)(=O)O.[Ag]
inactive: dose: 5.0 mg/kg/injection, schedule: Q01DX001 (ip), vehicle: saline 101 % of control | dose: 10.0 mg/kg/injection, schedule: Q01DX001 (ip), vehicle: saline 95 % of control | dose: 20.0 mg/kg/injection, schedule: Q01DX001 (ip), vehicle: saline 97 % of control | dose: 40.0 mg/kg/injection, schedule: Q01DX001 (ip), vehicle: saline 97 % of control

CC1OC1CO (centres undefined)
inactive: [6] 96 % of control | [7] 101 % of control | dose: 400.0 mg/kg/injection, schedule: Q04DX003 (ip), vehicle: saline with Tween-80 89 % of control

N#CSCc1ccc(CSC#N)c(Cl)c1
inactive: dose: 1.56 mg/kg/injection, schedule: Q01DX009 (ip), vehicle: saline sonified 97 % of control | dose: 1.56 mg/kg/injection, schedule: Q04DX003 (ip), vehicle: saline with Tween-80 101 % of control | dose: 3.13 mg/kg/injection, schedule: Q01DX009 (ip), vehicle: saline sonified 109 % of control | dose: 3.13 mg/kg/injection, schedule: Q04DX003 (ip), vehicle: saline with Tween-80 109 % of control | dose: 6.25 mg/kg/injection, schedule: Q01DX009 (ip), vehicle: saline sonified 111 % of control | dose: 6.25 mg/kg/injection, schedule: Q04DX003 (ip), vehicle: saline with Tween-80 109 % of control

Cc1ccc(-n2c(O)c(N=Nc3ccc(Cl)cc3)c(=O)n(-c3ccc(Br)cc3)c2=S)cc1
inactive: dose: 50.0 mg/kg/injection, schedule: Q01DX001 (ip), vehicle: Klucel (hydroxypropylcellulose) (HPC) 103 % of control | [4] 105 % of control | [5] 108 % of control

O=C1C2(c3ccccc3)CC(CBr)C1(c1ccccc1)C(c1ccccc1)=C2c1ccccc1 (centres undefined)
inactive: [8] 97 % of control | [9] 100 % of control | [10] 97 % of control | [11] 97 % of control

O=C1C=C2C=CCCC2CC1 (centres undefined)
inactive: dose: 75.0 mg/kg/injection, schedule: Q01DX001 (ip), vehicle: other 104 % of control | dose: 150.0 mg/kg/injection, schedule: Q01DX001 (ip), vehicle: other 98 % of control | dose: 300.0 mg/kg/injection, schedule: Q01DX001 (ip), vehicle: other 114 % of control

O=C1c2cccc(S(=O)(=O)O)c2C(=O)c2c1cccc2S(=O)(=O)O
inactive: [8] 109 % of control | [9] 111 % of control | [10] 109 % of control | [11] 103 % of control

O=[N+]([O-])c1cc(C(F)(F)F)cc([N+](=O)[O-])c1Cl
inactive: dose: 12.5 mg/kg/injection, schedule: Q01DX001 (ip), vehicle: Klucel (hydroxypropylcellulose) (HPC) 91 % of control | dose: 25.0 mg/kg/injection, schedule: Q01DX001 (ip), vehicle: Klucel (hydroxypropylcellulose) (HPC) 91 % of control

Clc1ccc2c(Cl)cc(Cl)nc2c1
inactive: dose: 75.0 mg/kg/injection, schedule: Q01DX001 (ip), vehicle: saline 92 % of control | dose: 300.0 mg/kg/injection, schedule: Q01DX001 (ip), vehicle: saline 87 % of control
